According to ChEMBL document CHEMBL3886760, “Cyclic amine substituted heterocyclic CETP inhibitors” (2016):

Target: T1, Cholesteryl ester transfer protein (Homo sapiens, UniProt P11597)
T1 sequence (P11597 whole entry): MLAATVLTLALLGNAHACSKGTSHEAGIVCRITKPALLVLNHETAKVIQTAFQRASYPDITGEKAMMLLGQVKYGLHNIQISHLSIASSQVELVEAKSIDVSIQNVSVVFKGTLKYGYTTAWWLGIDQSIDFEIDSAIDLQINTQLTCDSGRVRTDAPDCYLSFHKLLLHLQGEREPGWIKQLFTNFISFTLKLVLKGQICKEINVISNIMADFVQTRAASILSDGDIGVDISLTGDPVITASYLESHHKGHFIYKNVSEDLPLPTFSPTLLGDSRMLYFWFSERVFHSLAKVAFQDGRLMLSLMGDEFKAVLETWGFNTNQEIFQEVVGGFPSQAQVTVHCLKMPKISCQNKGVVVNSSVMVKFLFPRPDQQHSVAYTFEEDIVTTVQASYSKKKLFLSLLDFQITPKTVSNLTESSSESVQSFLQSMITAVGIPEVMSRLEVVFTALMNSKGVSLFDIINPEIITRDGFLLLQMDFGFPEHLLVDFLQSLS
Assay: Scintillation Proximity Assay (SPA): First, low density lipoprotein (LDL) (Meridian) was biotinylated by incubating LDL with biotin for 1 hour on ice, after which it was dialyzed to remove free biotin. Then compounds at varying concentrations were incubated with 15 nM CETP (reagent production group, In Vitro Pharmacology, MRL Rahway) and 50 ug/ml of the biotinylated LDL in 50 mM HEPES, 150 mM NaCl, pH 7.4, for 1 hour at 37° C. The reaction was started by adding 3H-cholesterol ester high density lipoprotein (HDL) (American Radiochemicals Corp) at a concentration of 0.6 nM. The reaction proceeded for 2 hours at 37° C., after which time it was quenched by the addition of 12% acetic acid. PVT streptavadin-coated scintillation proximity beads, which had been brought to room temperature, were then added at a concentration of 4 mg/ml. The assay was then mixed and counted after one half hour in a Microbeta plate reader.

IC50: 38 nM
SMILES: COc1ncc(Cl)cc1-c1cnc(N2CC(F)C2)nc1CN1C(=O)O[C@H](c2cc(C(F)(F)F)cc(C(F)(F)F)c2)[C@@H]1C
